A word on the solubility: it is the dissolved amount per volume that the medium holds. Lower therefore signals little dissolved substance. The IC50 is the concentration that inhibits the measured activity by half. A lower IC50 goes with higher potency. The AUC(0-inf) is the area under the concentration-time curve extrapolated to infinity. Read a high AUC(0-inf) as more exposure. What is called Tmax is the time from dosing to the highest level. As a reminder, the bioavailability is dose-corrected exposure relative to a reference, in per cent. As a reminder, the Cmax is the maximum level reached in the sampled fluid or tissue. What is called EC50 is the concentration needed to bring the measured effect to its halfway point. The low end stands for an effect from little substance, the high end for a need for much substance.

Converted amounts (≈) assume the structure as drawn.

The text below walks through data of ChEMBL document CHEMBL4834468, “Enantioselective Synthesis and Profiling of Potent, Nonlinear Analogues of Antimalarial Tetraoxanes E209 and N205” (ACS Med Chem Lett, 2021).

Series [1] in a line: Solubility of the compound in FaSSIF. In kind it is physicochemical.
Series [2] has as its system Plasmodium falciparum. As to the kind of experiment: microbe, parasite or virus in culture. The conditions noted are these: W2, 72 h.
Description: Antiplasmodial activity against chloroquine-resistant Plasmodium falciparum W2 incubated for 72 hrs by spectrophotometry based parasite lactate dehydrogenase assay
Series [3] in a line: Solubility of compound in 0.1 M HCl assessed as equilibrium pH. In kind it is physicochemical. Particulars: buffer.
Series [4] has as its system Plasmodium falciparum. The experiment in a line: microbe, parasite or virus in culture. The conditions noted are these: D10, 72 h.
Description: Antiplasmodial activity against chloroquine-sensitive Plasmodium falciparum D10 incubated for 72 hrs by spectrophotometry based parasite lactate dehydrogenase assay
Series [5] in a line: Solubility of compound in 0.1 M HCl. In kind it is physicochemical.
Series [6] is described as follows: Solubility of the compound in FaSSIF assessed as equilibrium pH. In kind it is physicochemical. Particulars: simulated gi fluid.
Series [7] can be described thus: AUC (infinity) in Sprague-Dawley rat at 10 mg/kg, po administered as single dose. In kind it is ADME, organism-based. More on the design: time infinity, route oral, dose 10 mg/kg. Particulars: in vivo.
Series [8] can be described thus: Aqueous solubility of compound in PBS at pH 7.4. In kind it is physicochemical.
A short description of series [9]: Tmax in Sprague-Dawley rat at 10 mg/kg, po administered as single dose. The conditions noted are these: in vivo. In kind it is ADME, organism-based.
Series [10] can be described thus: Oral bioavailability in Sprague-Dawley rat at 10 mg/kg administered as single dose. In kind it is ADME, organism-based. Particulars: in vivo.
Series [11] can be described thus: Cmax in Sprague-Dawley rat at 10 mg/kg, po administered as single dose. In kind it is ADME, organism-based. More on the design: route oral, dose 10 mg/kg. Particulars: in vivo.
Series [12] can be described thus: Intrinsic clearance in human liver microsome up to 30 mins by LC-MS analysis. In kind it is ADME. Particulars: liver microsomes, read-out: CLH. Background: Microsomes from liver hold many membrane-bound enzymes, among them those of drug oxidation.
Series [13] in a line: Intrinsic clearance in rat hepatocytes measured per 10^6 cells up to 120 mins by LC-MS analysis. In kind it is ADME, cell-based, Hepatocyte. The conditions noted are these: read-out: CLH.
Series [14] in a line: Intrinsic clearance in mouse liver microsome by LC-MS/MS analysis. In kind it is ADME, microsomes.
For series [15], the system named is Plasmodium falciparum. As to the kind of experiment: Antiplasmodial activity against chloroquine-sensitive Plasmodium falciparum 3D7. In kind it is functional, organism-based.
Series [16] is described as follows: Intrinsic clearance in mouse liver microsome assessed as half life by LC-MS/MS analysis. In kind it is ADME. The conditions noted are these: microsomes.

Consider `FC1CCN(Cc2ccc(C3CCC4(CC3)OOC3(OO4)C4CC5CC(C4)CC3C5)cc2)CC1` (centres undefined), for which, in [1], the solubility at 1 h amounted to 14.8 µg/mL (≈ 31.4 µM). Further, the half-maximal inhibitory concentration (IC50) in the series with Plasmodium falciparum [2] was 11.7 nM; with Plasmodium falciparum [4], 16.1 nM. The figures for the pH in series [3] and in series [6] were 1 and 6.1, respectively. Besides, the solubility in [5] was determined as 101 µg/mL (≈ 214 µM).
On to `c1cc(C2CCC3(CC2)OOC2(OO3)C3CC4CC(C3)CC2C4)ccc1CN1CCOCC1` (centres undefined), for which the solubility at 1 h in series [1] was 24 µg/mL (≈ 52.7 µM). The AUC(0-inf) in series [7] is 608 ng·h/mL. In addition, the solubility was found to be 0.106 µM (≈ 0.0483 µg/mL) in series [8] and 21.2 µg/mL (≈ 46.5 µM) in [5]. The Tmax in series [9] worked out at 4.33 h. Also, the 50% inhibitory concentration (IC50) was found to be 8.65 nM in the series with Plasmodium falciparum [2] and 9.38 nM in the series on Plasmodium falciparum [4]. Besides, the pH is recorded as 1 in [3] and 6.1 in [6]. In series [10], this molecule displayed a bioavailability of 41.3%. The Cmax in [11] came out at 136 ng/mL.
As for `FC1CCN(CCOc2ccc(C3CCC4(CC3)OOC3(OO4)C4CC5CC(C4)CC3C5)cc2)CC1` (centres undefined), the microsomal CLint in series [12] came out at 23 µL/min/mg. Also, the solubility at 1 h in series [1] was 215 µg/mL (≈ 429 µM). For the same molecule, the values for the solubility in [8] and in [5] were 0.1 µM (≈ 0.0502 µg/mL) and 1790 µg/mL (≈ 3570 µM), respectively. Also, the IC50 with Plasmodium falciparum [2] worked out at 8.49 nM; in the series on Plasmodium falciparum [4], 8.96 nM. Moreover, the pH was 1.13 in series [3] and 6.42 in series [6]. Besides, in series [13], the hepatocyte CLint stood at 12 µL/min/1e6 cells.
`c1cc(C2CCC3(CC2)OOC2(OO3)C3CC4CC(C3)CC2C4)ccc1OCCN1CCOCC1` (centres undefined): the IC50 in the series with Plasmodium falciparum [2] was 10.1 nM; with Plasmodium falciparum [4] it was 12.4 nM.
With `c1cc([C@@H]2CCCC3(C2)OOC2(OO3)C3CC4CC(C3)CC2C4)ccc1CN1CCOCC1` (some centres undefined), the microsomal CLint in series [12] turned out to be 27.1 µL/min/mg. This molecule also yielded a solubility at 1 h in series [1] of 324 µg/mL (≈ 711 µM). Also, the AUC(0-inf) in series [7] came out at 1440 ng·h/mL. Moreover, the figures for the solubility in series [8] and in series [5] were 0.1 µM (≈ 0.0456 µg/mL) and 188 µg/mL (≈ 413 µM), respectively. Also, the Tmax in [9] turned out to be 2 h. Besides, the 50% inhibitory concentration (IC50) in the series with Plasmodium falciparum [2] is 11.2 nM; in the series on Plasmodium falciparum [4] it was 12.5 nM. The pH was 1.12 in [3] and 6.43 in series [6]. The molecule further had a bioavailability in series [10] of 76.4%. In addition, the hepatocyte CLint in series [13] was 26.2 µL/min/1e6 cells. In series [11], this molecule had a Cmax of 410 ng/mL.
With `FC1CCN(CCOc2ccc([C@H]3CCCC4(C3)OOC3(OO4)C4CC5CC(C4)CC3C5)cc2)CC1` (some centres undefined), the microsomal CLint in [12] amounted to 26.3 µL/min/mg. This molecule also registered a solubility at 1 h in series [1] of 413 µg/mL (≈ 823 µM). Also, the solubility came to 0.1 µM (≈ 0.0502 µg/mL) in series [8] and 1270 µg/mL (≈ 2530 µM) in [5]. Besides, the IC50 in the series with Plasmodium falciparum [2] was 22.5 nM; with Plasmodium falciparum [4] it was 20.8 nM. Besides, the pH in series [3] is listed as 1.14; in series [6], 6.43. Besides, the hepatocyte CLint in series [13] is 16.7 µL/min/1e6 cells.
Consider `c1cc(C2CCCC3(C2)OOC2(OO3)C3CC4CC(C3)CC2C4)ccc1OCCN1CCOCC1` (centres undefined), for which the results for the IC50 with Plasmodium falciparum [2] and in the series on Plasmodium falciparum [4] were 17.7 nM and 16.4 nM, respectively.
With `c1cc([C@H]2CCCC3(C2)OOC2(OO3)C3CC4CC(C3)CC2C4)ccc1OCCN1CCOCC1` (some centres undefined), the microsomal CLint in series [12] was 22.1 µL/min/mg. Besides, in series [1], the concentration in solution (solubility at 1 h) came to 69 µg/mL (≈ 142 µM). Besides, the values for the solubility in series [8] and in [5] were 0.1 µM (≈ 0.0486 µg/mL) and 284 µg/mL (≈ 585 µM), respectively. The IC50 in the series on Plasmodium falciparum [2] was determined as 15.8 nM; in the series with Plasmodium falciparum [4] it was 16 nM. Moreover, the pH in [3] is given as 1.11; in series [6], 6.42. The hepatocyte CLint in series [13] was 49.2 µL/min/1e6 cells.
The molecule `NC1CCN(C(=O)O[C@@H]2CCC[C@]3(C2)OOC2(O3)C3CC4CC(C3)CC2C4)CC1` (some centres undefined) showed an EC50 in the series on Plasmodium falciparum [2] of 1.8 nM. Also, the microsomal CLint in series [14] (liver microsomes, read-out: CLH) came to 155 µL/min/mg.
Turning to `FC1CCN(CCOc2ccc([C@@H]3CCCC4(C3)OOC3(OO4)C4CC5CC(C4)CC3C5)cc2)CC1` (some centres undefined), the microsomal CLint in [12] stood at 19.8 µL/min/mg. In series [8], this molecule gave a solubility of 0.1 µM (≈ 0.0502 µg/mL). In addition, the concentration for half-maximal inhibition (IC50) in the series on Plasmodium falciparum [2] is 19.2 nM; with Plasmodium falciparum [4] it was 17.5 nM. Moreover, in [13], the hepatocyte CLint is 13.5 µL/min/1e6 cells.
For `FC1CCN(Cc2ccc([C@@H]3CCCC4(C3)OOC3(OO4)C4CC5CC(C4)CC3C5)cc2)CC1` (some centres undefined), the microsomal CLint in series [12] came out at 35.9 µL/min/mg. The molecule further showed a solubility at 1 h in series [1] of 195 µg/mL (≈ 413 µM). The solubility in [8] turned out to be 0.1 µM (≈ 0.0472 µg/mL); in [5] it was 95 µg/mL (≈ 201 µM). Also, the IC50 came to 10.3 nM in the series on Plasmodium falciparum [2] and 10.6 nM in the series with Plasmodium falciparum [4]. The pH in series [3] is 1.12; in series [6], 6.43. In addition, the hepatocyte CLint in series [13] stood at 19.2 µL/min/1e6 cells.
`c1cc([C@@H]2CCCC3(C2)OOC2(OO3)C3CC4CC(C3)CC2C4)ccc1OCCN1CCOCC1` (some centres undefined): the microsomal CLint in [12] worked out at 22.2 µL/min/mg. For the same molecule, the solubility in series [8] is 0.1 µM (≈ 0.0486 µg/mL). Besides, the figures for the IC50 in the series with Plasmodium falciparum [2] and with Plasmodium falciparum [4] were 16 nM and 17.4 nM, respectively. Moreover, the hepatocyte CLint in [13] stood at 21.6 µL/min/1e6 cells.
For the molecule `FC1CCN(Cc2ccc([C@H]3CCCC4(C3)OOC3(OO4)C4CC5CC(C4)CC3C5)cc2)CC1` (some centres undefined), in series [12], the microsomal CLint turned out to be 26.7 µL/min/mg. This molecule also returned a solubility at 1 h in [1] of 189 µg/mL (≈ 401 µM). The solubility in series [8] is less than 0.1 µM; in [5], 60 µg/mL (≈ 127 µM). Besides, the IC50 in the series with Plasmodium falciparum [2] turned out to be 14.9 nM; with Plasmodium falciparum [4] it was 16.5 nM. Besides, the pH was 1.14 in series [3] and 6.44 in series [6]. The hepatocyte CLint in series [13] is 30.7 µL/min/1e6 cells.
Regarding `c1cc([C@H]2CCCC3(C2)OOC2(OO3)C3CC4CC(C3)CC2C4)ccc1CN1CCOCC1` (some centres undefined), the microsomal CLint in series [12] was 19.7 µL/min/mg. Further, the solubility at 1 h in series [1] was 248 µg/mL (≈ 544 µM). In addition, the figures for the solubility in series [8] and in [5] were 0.1 µM (≈ 0.0456 µg/mL) and 165 µg/mL (≈ 362 µM), respectively. Also, the IC50 with Plasmodium falciparum [2] and with Plasmodium falciparum [4] was 15.2 nM throughout. In addition, the pH in series [3] is 1.13; in series [6] it was 6.42. Moreover, in series [13], the hepatocyte CLint is 50.2 µL/min/1e6 cells.
On to `c1cc(C2CCCC3(C2)OOC2(OO3)C3CC4CC(C3)CC2C4)ccc1CN1CCOCC1` (racemic), for which the IC50 in the series with Plasmodium falciparum [2] stood at 11.2 nM; in the series with Plasmodium falciparum [4], 15.4 nM.
Take `FC1CCN(Cc2ccc(C3CCCC4(C3)OOC3(OO4)C4CC5CC(C4)CC3C5)cc2)CC1` (racemic): the IC50 in the series with Plasmodium falciparum [2] was determined as 14.4 nM; in the series with Plasmodium falciparum [4], 15.7 nM.
For the molecule `FC1CCN(CCOc2ccc(C3CCCC4(C3)OOC3(OO4)C4CC5CC(C4)CC3C5)cc2)CC1` (racemic), the IC50 in the series with Plasmodium falciparum [2] was 12.8 nM; in the series on Plasmodium falciparum [4] it was 12.9 nM.
Molecule `c1cc([C@H]2CC[C@]3(CC2)OO[C@]2(O3)C3CC4CC(C3)CC2C4)ccc1OCCN1CCOCC1` [ARTEFENOMEL] came in with a solubility at 1 h in series [1] of 120 µg/mL (≈ 256 µM). The solubility in series [8] worked out at 0.85 µM (≈ 0.399 µg/mL). Also, half-maximal inhibition with Plasmodium falciparum [15] (IC50) was put at 5.1 nM. For the same molecule, the pH in series [6] is recorded as 6.6.
Consider `C[C@H]1[C@@H](O)O[C@@H]2O[C@@]3(C)CC[C@H]4[C@H](C)CC[C@@H]1[C@@]24OO3` [ARTENIMOL], for which the IC50 with Plasmodium falciparum [2] turned out to be 1.02 nM; in the series with Plasmodium falciparum [4], 2.59 nM.
Turning to `CC(C)(N)CNC(=O)C[C@H]1CC[C@]2(CC1)OO[C@]1(O2)C2CC3CC(C2)CC1C3` [OZ277], the t1/2 in series [16] stood at 2.13 h. Further, the CLH in series [14] (microsomes) stood at 5.4 µL/min/mg.
